Results as given in patent publication US10711041B2, “Lyophilisate containing a cyclic peptide of formula X1-[sequence]-X2” (priority 2013, dated 2020).

Key:
[1] = Concentration in lung tissue and blood after aerosol inhalation, rat; type: in vivo; settings: after inhalation of aerosol
Protocol: The proof of a cyclic peptide of amino acid sequence SEQ ID NO:1 to SEQ ID NO:6 may take place in lung tissue of rats. For that exemplarily an aerosol was produced with a nebulizer from an aqueous solution of the cyclic peptide of amino acid sequence SEQ ID NO:1. The aerosol was inhaled by the experimental animal (72 mg/kg body weight). After termination of aerosol inhalation, the lung tissue, as well as the blood of the experimental animal was examined. By means of reverse HPLC/MS the concentration of the cyclic peptide of amino acid sequence SEQ ID NO:1 was determined Exemplarily, the cyclic peptide of amino acid sequence SEQ ID NO:1 could be detected in the lung tissue in a concentration of 1.2 μm/g after inhalation of 72 mg/kg body weight in sum. In contrast to that the cyclic peptide of amino acid sequence SEQ ID NO:1 could not be detected in the blood up to a detection limit of 0.1 μm/ml.

[2] = Chemical stability of condensed aerosol by reverse HPLC/MS; type: physicochemical; settings: Mesh-Type nebulizer, aerosol condensed in cooling trap
Protocol: Since proteins and peptides occasionally may be rather unstable, it was investigated, whether the cyclic peptides of amino acid sequence SEQ ID NO:1 to SEQ ID NO:6 in dissolved preparation during conversion into an aerosol remain stable. For that the cyclic peptides were dissolved in water as described in example 4. After filling into the storage container of a nebulizer the aqueous solution of the cyclic peptides were converted into an aerosol. For that a “Mesh-Type” nebulizer was used. The biological activity of the collected aerosols was determined by means of the Patch Clamp method. Thereby macroscopic currents of A549 cells were deduced in the “whole cell” configuration of the “Patch-clamp” technique, as described under “Electrophysiological Investigations of the Amilorid-sensitive Sodium Ion Channel (ENaC)”.
The chemical stability of the condensed aerosols was determined by means of reverse HPLC/MS.

## C[C@@H]1NC(=O)CNC(=O)[C@H](CCC(=O)O)NC(=O)[C@@H]2CCCN2C(=O)[C@H]([C@@H](C)O)NC(=O)[C@H](CCC(=O)O)NC(=O)[C@H](CCCNC(=N)N)NC(=O)[C@H](CCC(N)=O)NC(=O)CNC(=O)[C@@H](N)CSSC[C@@H](C(=O)O)NC(=O)[C@H](Cc2ccc(O)cc2)NC(=O)[C@H](Cc2c[nH]c3ccccc23)NC(=O)[C@@H]2CCCN2C(=O)[C@H](CCCCN)NC(=O)[C@H](C)NC(=O)[C@H](CCC(=O)O)NC1=O [SEQ ID NO: 1]
[1]; 72 mg/kg body weight in sum
  concentration in lung tissue: 1.2 μm/g
[1]; 72 mg/kg, detection limit
  concentration in blood: < 0.1 μm/ml
[2]
  chemical stability during transformation into an aerosol: keeps its biological, as well as its chemical stability
